The source of these data is ChEMBL document CHEMBL5321283, “Structure-Activity Relationships of the Antimicrobial Peptide Natural Product Apidaecin” (J Med Chem, 2023).

≈ marks a conversion by molar mass, not a printed value. Where a SMILES comes first, the peptide text is derived from it. [ ]: non-standard residue; d: D form. The star is where a group is joined. Orn(α-tetramethylguanidino) = CN(C)C(=N[C@@H](CCCN)C(=O)*)N(C)C; Phe(4-F) = N[C@@H](Cc1ccc(F)cc1)C(=O)O; Hyp = O=C(O)[C@@H]1C[C@@H](O)CN1; hArg = N=C(N)NCCCC[C@H](N)C(=O)O; dLeu(ol) = CC(C)C[C@@H](N)CO; NHIsopentyl = CC(C)CCN*

Assay [1] concerns Escherichia coli. Put plainly: Antibacterial activity against Escherichia coli BL21 assessed as bacterial growth inhibition by broth microdilution assay. The assay is classed as functional. In general terms: Broth dilution looks for growth in wells or tubes with falling amounts of substance.
Assay [2] relates to Escherichia coli. Kind of assay: Potency index, ratio of Api-137 MIC to test compound MIC for antibacterial activity against Escherichia coli BL21 assessed as bacterial growth inhibition by broth microdilution assay. The assay is classed as functional.

The MIC is the lowest concentration that inhibits growth of the organism. As to `CC[C@H](C)[C@H](NC(=O)[C@H](Cc1ccc(O)cc1)NC(=O)[C@@H](NC(=O)[C@@H]1C[C@@H](O)CN1C(=O)[C@H](CCCNC(=N)N)NC(=O)[C@H](CC(N)=O)NC(=O)[C@H](CC(N)=O)NC(=O)[C@H](CCCN)N=C(N(C)C)N(C)C)C(C)C)C(=O)N1CCC[C@H]1C(=O)N[C@@H](CCCNC(=N)N)C(=O)N1CCC[C@H]1C(=O)N[C@@H](CCCNC(=N)N)C(=O)N1CCC[C@H]1C(=O)N1CCC[C@H]1C(=O)N[C@@H](Cc1c[nH]cn1)C(=O)N1CCC[C@H]1C(=O)N[C@@H](CCCNC(=N)N)C(=O)N[C@@H](CC(C)C)C(=O)O` ({Orn(α-tetramethylguanidino)}-NNR[Hyp]VYIPRPRPPHPRL-OH), the minimal inhibitory concentration (MIC) in assay [1] was 0.08 µM (≈ 0.185 µg/mL). Moreover, in assay [2], the Ratio worked out at 1.

Regarding `CC[C@H](C)[C@H](NC(=O)[C@H](Cc1ccc(OC)cc1)NC(=O)[C@@H](NC(=O)[C@@H]1CCCN1C(=O)[C@H](CCCNC(=N)N)NC(=O)[C@H](CC(N)=O)NC(=O)[C@H](CC(N)=O)NC(=O)[C@H](CCCN)N=C(N(C)C)N(C)C)C(C)C)C(=O)N1CCC[C@H]1C(=O)N[C@@H](CCCNC(=N)N)C(=O)N1CCC[C@H]1C(=O)N[C@@H](CCCNC(=N)N)C(=O)N1CCC[C@H]1C(=O)N1CCC[C@H]1C(=O)N[C@@H](Cc1c[nH]cn1)C(=O)N1CCC[C@H]1C(=O)N[C@@H](CCCNC(=N)N)C(=O)N[C@@H](CC(C)C)C(=O)O` ({Orn(α-tetramethylguanidino)}-NNRPVY(Me)IPRPRPPHPRL-OH), the MIC in assay [1] stood at 1.5 µM (≈ 3.46 µg/mL). For the same molecule, the Ratio in assay [2] was found to be 4.

Turning to `CC[C@H](C)[C@H](NC(=O)[C@H](Cc1ccc(O)cc1)NC(=O)[C@@H](NC(=O)[C@@H]1CCCN1C(=O)[C@H](CCCNC(=N)N)NC(=O)[C@H](CC(N)=O)NC(=O)[C@H](CC(N)=O)NC(=O)[C@H](CCCN)N=C(N(C)C)N(C)C)C(C)C)C(=O)N1C[C@H](O)C[C@H]1C(=O)N[C@@H](CCCNC(=N)N)C(=O)N1CCC[C@H]1C(=O)N[C@@H](CCCNC(=N)N)C(=O)N1CCC[C@H]1C(=O)N1CCC[C@H]1C(=O)N[C@@H](Cc1c[nH]cn1)C(=O)N1CCC[C@H]1C(=O)N[C@@H](CCCNC(=N)N)C(=O)N[C@@H](CC(C)C)C(=O)O` ({Orn(α-tetramethylguanidino)}-NNRPVYI[Hyp]RPRPPHPRL-OH), in assay [1], the MIC turned out to be 0.08 µM (≈ 0.185 µg/mL). The Ratio in assay [2] is given as 1.

On to `CC[C@H](C)[C@H](NC(=O)[C@H](Cc1ccc(O)cc1)NC(=O)[C@@H](NC(=O)[C@@H]1CCCN1C(=O)[C@H](CCCNC(=N)N)NC(=O)[C@H](CC(N)=O)NC(=O)[C@H](CC(N)=O)NC(=O)[C@H](CCCN)N=C(N(C)C)N(C)C)C(C)C)C(=O)N1CCC[C@H]1C(=O)N[C@@H](CCCNC(=N)N)C(=O)N1CCC[C@H]1C(=O)N[C@@H](CCCNC(=N)N)C(=O)N1CCC[C@H]1C(=O)N1C[C@H](O)C[C@H]1C(=O)N[C@@H](Cc1c[nH]cn1)C(=O)N1CCC[C@H]1C(=O)N[C@@H](CCCNC(=N)N)C(=O)N[C@@H](CC(C)C)C(=O)O` ({Orn(α-tetramethylguanidino)}-NNRPVYIPRPRP[Hyp]HPRL-OH), for which the MIC in assay [1] is 0.6 µM (≈ 1.38 µg/mL). Also, the Ratio in assay [2] worked out at 2.

Take `CC[C@H](C)[C@H](NC(=O)[C@H](Cc1ccc(O)cc1)NC(=O)[C@@H](NC(=O)[C@@H]1CCCN1C(=O)[C@H](CCCNC(=N)N)NC(=O)[C@H](CC(N)=O)NC(=O)[C@H](CC(N)=O)NC(=O)[C@H](CCCN)N=C(N(C)C)N(C)C)C(C)C)C(=O)N1CCC[C@H]1C(=O)N[C@@H](CCCNC(=N)N)C(=O)N1CCC[C@H]1C(=O)N[C@@H](CCCNC(=N)N)C(=O)N1C[C@H](O)C[C@H]1C(=O)N1CCC[C@H]1C(=O)N[C@@H](Cc1c[nH]cn1)C(=O)N1CCC[C@H]1C(=O)N[C@@H](CCCNC(=N)N)C(=O)N[C@@H](CC(C)C)C(=O)O` ({Orn(α-tetramethylguanidino)}-NNRPVYIPRPR[Hyp]PHPRL-OH): the MIC in assay [1] amounted to 0.16 µM (≈ 0.369 µg/mL). The Ratio in assay [2] is given as 2.

Consider `CC[C@H](C)[C@H](NC(=O)[C@H](Cc1ccc(O)cc1)NC(=O)[C@@H](NC(=O)[C@@H]1CCCN1C(=O)[C@H](CCCNC(=N)N)NC(=O)[C@H](CC(N)=O)NC(=O)[C@H](CC(N)=O)NC(=O)[C@H](CCCN)N=C(N(C)C)N(C)C)C(C)C)C(=O)N1CCC[C@H]1C(=O)N[C@@H](CCCNC(=N)N)C(=O)N1CCC[C@H]1C(=O)N[C@@H](CCCNC(=N)N)C(=O)N1CCC[C@H]1C(=O)N1CCC[C@H]1C(=O)N[C@@H](Cc1c[nH]cn1)C(=O)N1CCC[C@H]1C(=O)N[C@@H](CCCCNC(=N)N)C(=O)N[C@@H](CC(C)C)C(=O)O` ({Orn(α-tetramethylguanidino)}-NNRPVYIPRPRPPHP[hArg]L-OH), for which the minimal inhibitory concentration (MIC) in assay [1] was found to be 2.5 µM (≈ 5.76 µg/mL). Besides, the Ratio in assay [2] is 16.

`CC[C@H](C)[C@H](NC(=O)[C@H](Cc1ccc(O)cc1)NC(=O)[C@@H](NC(=O)[C@@H]1CCCN1C(=O)[C@H](CCCNC(=N)N)NC(=O)[C@H](CC(N)=O)NC(=O)[C@H](CC(N)=O)NC(=O)[C@H](CCCN)N=C(N(C)C)N(C)C)C(C)C)C(=O)N1CCC[C@H]1C(=O)N[C@@H](CCCNC(=N)N)C(=O)N1CCC[C@H]1C(=O)N[C@@H](CCCNC(=N)N)C(=O)N1CCC[C@H]1C(=O)N1CCC[C@H]1C(=O)N[C@@H](Cc1c[nH]c2ccccc12)C(=O)N1CCC[C@H]1C(=O)N[C@@H](CCCNC(=N)N)C(=O)N[C@@H](CC(C)C)C(=O)O` ({Orn(α-tetramethylguanidino)}-NNRPVYIPRPRPPWPRL-OH): the minimum inhibitory concentration (MIC) in assay [1] was 1.2 µM (≈ 2.81 µg/mL). Also, in assay [2], the Ratio amounted to 8.

Regarding `CC[C@H](C)[C@H](NC(=O)[C@H](Cc1ccc(O)cc1)NC(=O)[C@@H](NC(=O)[C@@H]1CCCN1C(=O)[C@H](CCCNC(=N)N)NC(=O)[C@H](CC(N)=O)NC(=O)[C@H](CC(N)=O)NC(=O)[C@H](CCCN)N=C(N(C)C)N(C)C)C(C)C)C(=O)N1CCC[C@H]1C(=O)N[C@@H](CCCNC(=N)N)C(=O)N1CCC[C@H]1C(=O)N[C@@H](CCCNC(=N)N)C(=O)N1CCC[C@H]1C(=O)N1CCC[C@H]1C(=O)N[C@@H](Cc1c[nH]cn1)C(=O)N1CCC[C@H]1C(=O)N[C@@H](CCCNC(=N)N)C(=O)NCCC(C)C` ({Orn(α-tetramethylguanidino)}-NNRPVYIPRPRPPHPR-NHIsopentyl), in assay [1], the minimum inhibitory concentration (MIC) was greater than 40 µM. Besides, the Ratio in assay [2] was greater than 800.

Take `CC[C@H](C)[C@H](NC(=O)[C@H](Cc1ccc(O)cc1)NC(=O)[C@@H](NC(=O)[C@@H]1CCCN1C(=O)[C@H](CCCNC(=N)N)NC(=O)[C@H](CC(N)=O)NC(=O)[C@H](CC(N)=O)NC(=O)[C@H](CCCN)N=C(N(C)C)N(C)C)C(C)C)C(=O)N1CCC[C@H]1C(=O)N[C@@H](CCCNC(=N)N)C(=O)N1CCC[C@H]1C(=O)N[C@@H](CCCNC(=N)N)C(=O)N1CCC[C@H]1C(=O)N1CCC[C@H]1C(=O)N[C@@H](Cc1c[nH]cn1)C(=O)N1CCC[C@H]1C(=O)N[C@@H](CCCNC(=N)N)C(=O)N[C@@H](CO)CC(C)C` ({Orn(α-tetramethylguanidino)}-NNRPVYIPRPRPPHPR[dLeu(ol)]): in assay [1], the MIC was determined as 10 µM (≈ 22.8 µg/mL). The Ratio in assay [2] is listed as 62.

For `CC[C@H](C)[C@H](NC(=O)[C@H](Cc1ccc(F)cc1)NC(=O)[C@@H](NC(=O)[C@@H]1CCCN1C(=O)[C@H](CCCNC(=N)N)NC(=O)[C@H](CC(N)=O)NC(=O)[C@H](CC(N)=O)NC(=O)[C@H](CCCN)N=C(N(C)C)N(C)C)C(C)C)C(=O)N1CCC[C@H]1C(=O)N[C@@H](CCCNC(=N)N)C(=O)N1CCC[C@H]1C(=O)N[C@@H](CCCNC(=N)N)C(=O)N1CCC[C@H]1C(=O)N1CCC[C@H]1C(=O)N[C@@H](Cc1c[nH]cn1)C(=O)N1CCC[C@H]1C(=O)N[C@@H](CCCNC(=N)N)C(=O)N[C@@H](CC(C)C)C(=O)O` ({Orn(α-tetramethylguanidino)}-NNRPV[Phe(4-F)]IPRPRPPHPRL-OH), the minimum inhibitory concentration (MIC) in assay [1] amounted to 0.35 µM (≈ 0.803 µg/mL). The Ratio in assay [2] was 1.
